ChEMBL document CHEMBL3804784, “Sulfatase inhibitors for recidivist breast cancer treatment: A chemical review” (Eur J Med Chem, 2016)
Each block holds one molecule with its values, some of them ahead of it.

Legend:
Steryl-sulfatase [1] = target: T1, Steryl-sulfatase (Homo sapiens, UniProt P08842); assay: Non-competitive inhibition of human placental microsomal estrone sulfatase using [3H]E1S as substrate incubated for 20 mins by Lineweaver-Burk plot analysis
T1 sequence (P08842 whole entry): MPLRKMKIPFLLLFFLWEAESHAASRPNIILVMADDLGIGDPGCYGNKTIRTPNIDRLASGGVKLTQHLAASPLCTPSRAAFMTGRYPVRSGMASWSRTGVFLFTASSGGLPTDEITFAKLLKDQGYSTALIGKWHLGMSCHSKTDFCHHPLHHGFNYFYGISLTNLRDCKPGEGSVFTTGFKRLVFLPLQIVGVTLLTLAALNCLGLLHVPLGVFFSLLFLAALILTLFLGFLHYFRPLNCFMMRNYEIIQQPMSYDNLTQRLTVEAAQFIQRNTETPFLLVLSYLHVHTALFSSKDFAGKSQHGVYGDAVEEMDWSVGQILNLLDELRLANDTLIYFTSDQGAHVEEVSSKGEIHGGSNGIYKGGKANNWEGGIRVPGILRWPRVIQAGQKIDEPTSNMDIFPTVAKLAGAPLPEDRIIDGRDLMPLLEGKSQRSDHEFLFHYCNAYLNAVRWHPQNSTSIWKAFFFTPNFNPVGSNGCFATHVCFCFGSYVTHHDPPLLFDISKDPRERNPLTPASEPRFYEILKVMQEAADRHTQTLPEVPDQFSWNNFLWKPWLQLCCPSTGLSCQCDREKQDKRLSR

Steryl-sulfatase [2] = target: T1, Steryl-sulfatase; assay: Inhibition of placental microsomal estrone sulfatase (unknown origin) using [3H]-estrone sulphate as substrate incubated for 20 mins by scintillation counting method
Steryl-sulfatase [3] = target: T1, Steryl-sulfatase; assay: Reversible inhibition of estrone sulfatase (unknown origin) using 4-methylumbelliferyl sulfate as substrate by Lineweaver-Burk plot analysis
Steryl-sulfatase [4] = target: T1, Steryl-sulfatase; assay: Inhibition of estrone sulfatase in human JEG-3 cells using [3H]-estrone sulphate as substrate incubated for 1 hr by liquid scintillation counting method; assay type: cell-based
Steryl-sulfatase [5] = target: T1, Steryl-sulfatase; assay: Inhibition of recombinant human estrone sulfatase expressed in CHO cells using 4-methylumbelliferyl sulfate as substrate by fluorimetric assay; assay type: cell-based
Steryl-sulfatase [6] = target: T1, Steryl-sulfatase; assay: Inhibition of recombinant human estrone sulfatase using 4-methylumbelliferyl sulfate as substrate by colorimetric assay
Steryl-sulfatase [7] = target: T1, Steryl-sulfatase; assay: Inhibition of human placental microsomal estrone sulfatase using [3H]E1S as substrate incubated for 30 mins
Steryl-sulfatase [8] = target: T1, Steryl-sulfatase; assay: Inhibition of estrone sulfatase (unknown origin) transfected in HEK293 cells using E1S as substrate; assay type: cell-based
Steryl-sulfatase [9] = target: T1, Steryl-sulfatase; assay: Inhibition of estrone sulfatase in human MCF7 cells using [3H]-estrone sulphate as substrate incubated for 30 mins by liquid scintillation counting method; assay type: cell-based
Steryl-sulfatase [10] = target: T1, Steryl-sulfatase; assay: Inhibition of human placental estrone sulfatase expressed in HEK293 cells using [3H]E1S as substrate incubated for 2 hrs by liquid scintillation counting method; assay type: cell-based
Steryl-sulfatase [11] = target: T1, Steryl-sulfatase; assay: Reversible inhibition of human estrone sulfatase using 4-methylumbelliferyl sulfate as substrate by fluorimetric assay
Steryl-sulfatase [12] = target: T1, Steryl-sulfatase; assay: Inhibition of estrone sulfatase (unknown origin) transfected in HEK293 cells using [3H]E1S as substrate incubated for 2 hrs by liquid scintillation counting method; assay type: cell-based
Rattus norvegicus = assay: In vivo inhibition of sulfatase in rat liver at 10 mg/kg, po after 24 hrs administered as single dose relative to control; assay type: functional
Steryl-sulfatase [13] = target: T1, Steryl-sulfatase; assay: Inhibition of placental microsomal estrone sulfatase (unknown origin) using [6,7-3H]E1S as substrate incubated for 1 hr by scintillation spectrometric analysis
Steryl-sulfatase [14] = target: T1, Steryl-sulfatase; assay: Inhibition of estrone sulfatase in human JEG-3 cells using [3H]-estrone sulphate as substrate incubated for 4 hrs by liquid scintillation counting method; assay type: cell-based
Steryl-sulfatase [15] = target: T1, Steryl-sulfatase; assay: Inhibition of human placental microsomal estrone sulfatase using 4-methylumbelliferyl sulfate as substrate incubated for 1 hr by fluorescence assay

- Ki (Steryl-sulfatase [3]): 82000 nM
SMILES: C=CCS(=O)(=O)C(F)(F)c1ccc2c(c1)CC[C@@H]1[C@@H]2CC[C@]2(C)C(=O)CC[C@@H]12

- IC50 (Steryl-sulfatase [4]): 30 nM
SMILES: COc1cc(C[C@]2(O)CC[C@H]3[C@@H]4CCc5cc(OS(N)(=O)=O)ccc5[C@H]4CC[C@@]32C)cc(OC)c1

- IC50 (Steryl-sulfatase [4]): 30 nM
SMILES: CC(C)(C)c1ccc(C[C@]2(O)CC[C@H]3[C@@H]4CCc5cc(OS(N)(=O)=O)ccc5[C@H]4CC[C@@]32C)cc1

- IC50 (Steryl-sulfatase [9]): 100 nM
SMILES: CCN(CC)CCOCC[C@H]1CC[C@H]2[C@@H]3[C@H](C)Cc4cc(OS(N)(=O)=O)ccc4[C@H]3CC[C@]12C

- IC50 (Steryl-sulfatase [10]): 0.4 nM
SMILES: CCCCCCC(O)(CCCCc1ccc(OS(N)(=O)=O)cc1)Cc1ccc(C(C)(C)C)cc1 (centres undefined)

- Ki (Steryl-sulfatase [11]): 250 nM
SMILES: C[C@]12CC[C@@H]3c4ccc(B(O)O)cc4CC[C@H]3[C@@H]1CC[C@@]2(O)Cc1ccccc1

- IC50 (Steryl-sulfatase [12]): 1.4 nM
SMILES: C[C@]12CC[C@@H]3c4ccc(OS(N)(=O)=O)cc4CC[C@H]3[C@@H]1CC[C@@]2(O)Cc1ccccc1

- IC50 (Steryl-sulfatase [4]): 30 nM
SMILES: C[C@]12CC[C@@H]3c4ccc(OS(N)(=O)=O)cc4CC[C@H]3[C@@H]1CC[C@@]2(O)Cc1ccc(OCc2ccccc2)cc1

- IC50 (Steryl-sulfatase [4]): 30 nM
SMILES: C[C@]12CC[C@@H]3c4ccc(OS(N)(=O)=O)cc4CC[C@H]3[C@@H]1CC[C@@]2(O)Cc1ccc(O)cc1

- IC50 (Steryl-sulfatase [4]): 30 nM
SMILES: Cc1ccc(C[C@]2(O)CC[C@H]3[C@@H]4CCc5cc(OS(N)(=O)=O)ccc5[C@H]4CC[C@@]32C)cc1C

- IC50 (Steryl-sulfatase [12]): 14 nM
SMILES: CC(C)(C)c1ccc(C[C@]2(O)CC[C@H]3[C@@H]4CC=C5CC(OS(N)(=O)=O)CC[C@]5(C)[C@H]4CC[C@@]32C)cc1 (some centres undefined)

- IC50 (Steryl-sulfatase [12]): 21 nM
SMILES: C[C@]12CC[C@@H]3c4ccc(O)cc4CC[C@H]3[C@@H]1CC[C@@]2(O)Cc1ccc(-c2ccccc2C(F)(F)F)cc1

The next lines start with the molecule.

SMILES: COc1c2c(c(O)c3c1C(=O)c1c(cc(O)c(C)c1O)C3=O)-c1c(cc(/C=N/NC(=O)NC3CCCCC3)c(C(=O)O)c1O)CC2
- Ki (Steryl-sulfatase [1]): 350 nM

SMILES: CCCCC(=O)c1ccc(OS(N)(=O)=O)cc1
- IC50 (Steryl-sulfatase [2]): 3400 nM

SMILES: O=C(O)C(=O)c1ccc2oc(C34CC5CC(CC(C5)C3)C4)cc(=O)c2c1
- IC50 (Steryl-sulfatase [5]): > 180 nM
- IC50 (Steryl-sulfatase [6]): > 530 nM

SMILES: O=Cc1ccc2oc(C34CC5CC(CC(C5)C3)C4)cc(=O)c2c1
- IC50 (Steryl-sulfatase [5]): > 180 nM
- IC50 (Steryl-sulfatase [6]): > 530 nM

SMILES: CSc1cc2c(cc1OS(N)(=O)=O)CC[C@@H]1[C@@H]2CC[C@@]2(C)[C@H]1CC[C@@]2(O)Cc1ccccc1
- IC50 (Steryl-sulfatase [7]): 44 nM

SMILES: COc1cc2c(cc1OS(N)(=O)=O)CC[C@@H]1[C@@H]2CC[C@@]2(C)[C@H]1CC[C@@]2(O)Cc1ccc(C(C)(C)C)cc1
- IC50 (Steryl-sulfatase [8]): 0.04 nM

SMILES: O=C(CO)c1ccc2oc(C34CC5CC(CC(C5)C3)C4)cc(=O)c2c1
- IC50 (Steryl-sulfatase [5]): > 180 nM
- IC50 (Steryl-sulfatase [6]): > 530 nM

SMILES: COc1cc2c(cc1OS(N)(=O)=O)CC[C@@H]1[C@@H]2CC[C@@]2(C)[C@H]1CC[C@@]2(O)Cc1ccccc1
- IC50 (Steryl-sulfatase [8]): 0.024 nM

SMILES: O=C(O)Cc1ccc2oc(C34CC5CC(CC(C5)C3)C4)cc(=O)c2c1
- IC50 (Steryl-sulfatase [5]): > 180 nM
- IC50 (Steryl-sulfatase [6]): > 530 nM

SMILES: N#Cc1ccc2sc(C34CC5CC(CC(C5)C3)C4)cc(=O)c2c1
- IC50 (Steryl-sulfatase [5]): > 180 nM
- IC50 (Steryl-sulfatase [6]): > 530 nM

SMILES: C[C@]12CC[C@@H]3c4ccc(OS(N)(=O)=O)cc4CC[C@H]3[C@@H]1CC(=O)NC2=O
- IC50 (Steryl-sulfatase [7]): 1 nM

SMILES: NS(=O)(=O)Oc1ccc(-c2coc3cc(OS(N)(=O)=O)ccc3c2=O)cc1
- inhibition in vivo at 10 mg/kg (Rattus norvegicus): 71%

SMILES: C[C@]12CC[C@H]3[C@@H](CC=C4CC(OS(N)(=O)=O)CC[C@@]43C)[C@@H]1CC[C@@H]2C(O)Cc1ccccc1 (some centres undefined)
- IC50 (Steryl-sulfatase [12]): 400 nM

SMILES: NS(=O)(=O)Oc1ccc(C=O)cc1
- IC50 (Steryl-sulfatase [2]): 3400 nM

SMILES: C[C@]12CC[C@@H]3c4ccc(B(O)O)cc4CC[C@H]3[C@@H]1CCC2=O
- Ki (Steryl-sulfatase [11]): 2800 nM

SMILES: O=C(O)c1ccc2oc(C34CC5CC(CC(C5)C3)C4)cc(=O)c2c1
- IC50 (Steryl-sulfatase [5]): > 180 nM
- IC50 (Steryl-sulfatase [6]): > 530 nM

SMILES: C[C@]12CC[C@@H]3c4ccc(OS(N)(=O)=O)cc4CC[C@H]3[C@@H]1CCC2=O [EMATE]
- IC50 (Steryl-sulfatase [13]): 9.1 nM
- IC50 (Steryl-sulfatase [10]): 0.9 nM
- IC50 (Steryl-sulfatase [14]): 3.2 nM
- IC50 (Steryl-sulfatase [15]): 60 nM

SMILES: C=CCN1C(=O)C[C@H]2[C@@H]3CCc4cc(OS(N)(=O)=O)ccc4[C@H]3CC[C@]2(C)C1=O
- IC50 (Steryl-sulfatase [7]): 1 nM
